For 46 molecules, melting point results are on record in patent publication US7105553B2, “Thiazolyl amide derivatives” (Bayer Aktiengesellschaft, priority 1999, dated 2006).

Molecules are shown by their SMILES.

Turning to `CNS(=O)(=O)c1sc(N(C)C(=O)Cc2ccc(-c3ccccc3Cl)cc2)nc1C`, the melting point amounted to 128 °C.
Then `Cc1nc(N(C)C(=O)Cc2ccc(-c3cccc(N)c3)cc2)sc1S(N)(=O)=O`, with 209 °C.
Then `Cc1nc(N(C)C(=O)Cc2ccc(-c3ccccc3)cc2)sc1S(=O)(=O)NCCO`, with 167 °C; and `Cc1nc(N(C)C(=O)Cc2ccc(-c3cccc([N+](=O)[O-])c3)cc2)sc1S(=O)(=O)N(C)C`, with 81 °C.
Then `Cc1nc(N(C)C(=O)Cc2ccc(-c3ncccc3C(F)(F)F)cc2)sc1S(N)(=O)=O`, with 221 °C; and `Cc1nc(N(C)C(=O)Cc2ccc(-c3cncnc3)cc2)sc1S(N)(=O)=O`, with 234 °C.
In the case of `Cc1nc(N(C)C(=O)Cc2ccc(-c3ncccc3F)cc2)sc1S(N)(=O)=O`, the melting point amounted to 218 °C.
Then `Cc1nc(N(C)C(=O)Cc2ccc(-c3ccccc3)cc2)sc1S(=O)(=O)N(C)C`, with 184 °C; and `Cc1nc(N(C)C(=O)Cc2ccc(-c3cnccn3)cc2)sc1S(N)(=O)=O`, with 217 °C.
Then `CNS(=O)(=O)c1sc(N(C)C(=O)Cc2ccc(-c3cnccn3)cc2)nc1C`, with 187 °C; and `Cc1nc(N(C)C(=O)Cc2ccc(-c3ccccc3C(F)(F)F)cc2)sc1S(=O)(=O)NCCNC(=O)OC(C)(C)C`, with 156 °C.
Then `COCCCN(C(=O)Cc1ccc(-c2ccccc2)cc1)c1nc(C)c(S(N)(=O)=O)s1`, with 148 °C.
The molecule `CCOc1ccc(CC(=O)N(C)c2nc(C)c(S(=O)(=O)NC)s2)cc1` had a melting point of 157 °C.
Then `COc1ccc(F)cc1-c1ccc(CC(=O)N(CC2CCCO2)c2nc(C)c(S(N)(=O)=O)s2)cc1` (stereo not shown), with 79 °C; and `Cc1nc(N(C)C(=O)Cc2ccc(-c3ccncc3F)cc2)sc1S(N)(=O)=O`, with 223 °C; and `Cc1nc(N(C)C(=O)Cc2ccc(-c3ccccc3)cc2F)sc1S(N)(=O)=O`, with 130 °C.
`Cc1nc(N(C)C(=O)Cc2ccc(-c3ccccn3)cc2)sc1S(=O)(=O)NCCO[Si](C)(C)C(C)(C)C` showed a melting point of 130 °C.
`Cc1nc(N(C)C(=O)Cc2ccc(-c3ccccn3)cc2)sc1S(=O)(=O)NCCO` came in with a melting point of 175 °C.
Then `COCCN(C(=O)Cc1ccc(-c2ccccc2)cc1)c1nc(C)c(S(N)(=O)=O)s1`, with 163 °C.
Then `CONS(=O)(=O)c1sc(N(C)C(=O)Cc2ccc(-c3ccccc3)cc2)nc1C`, with 129 °C; and `CCOCCNS(=O)(=O)c1sc(N(C)C(=O)Cc2ccc(-c3ccccc3)cc2)nc1C`, with 105 to 106 °C; and `CNS(=O)(=O)c1sc(N(C)C(=O)Cc2ccc(-c3cc(C)cc(C)c3)cc2)nc1C`, with 170 °C.
Then `CNS(=O)(=O)c1sc(N(C)C(=O)Cc2ccc(-c3cccc(C=O)c3)cc2)nc1C`, with 192 °C; and `CNS(=O)(=O)c1sc(N(C)C(=O)Cc2ccc(-c3cccc(N)c3)cc2)nc1C`, with 193 °C; and `CNS(=O)(=O)c1sc(N(C)C(=O)Cc2ccc(-c3cccc([N+](=O)[O-])c3)cc2)nc1C`, with 201 °C.
`CNS(=O)(=O)c1sc(N(C)C(=O)Cc2ccc(-c3cccc(OC(F)(F)F)c3)cc2)nc1C` gave a melting point of 156 °C.
Then `Cc1nc(N(C)C(=O)Cc2ccc(-c3cccnc3)cc2)sc1S(N)(=O)=O`, with 208 °C; and `CNS(=O)(=O)c1sc(N(C)C(=O)Cc2ccc(-c3cccnc3)cc2)nc1C`, with 200 °C; and `CNS(=O)(=O)c1sc(N(C)C(=O)Cc2ccc(-c3cccnc3)cc2)nc1C.Cl`, with 270 °C.
Then `CCOCCOCCOCCN(C(=O)Cc1ccc(-c2ccccc2)cc1)c1nc(C)c(S(N)(=O)=O)s1`, with 94 °C; and `CNS(=O)(=O)c1sc(N(CCNC(=O)OC(C)(C)C)C(=O)Cc2ccc(-c3ccccc3)cc2)nc1C`, with 188 °C.
In turn, `CCN(C(=O)Cc1ccc(-c2ccccc2)cc1)c1nc(C)c(S(=O)(=O)NCC(F)(F)F)s1` yielded a melting point of 152 °C.
Then `CNS(=O)(=O)c1sc(N(C)C(=O)Cc2ccc(-c3ncccc3N)cc2)nc1C.Cl`, with 160 °C; and `Cc1nc(N(C)C(=O)Cc2ccc(-c3cccc(N4CCCC4)c3)cc2)sc1S(N)(=O)=O`, with 152 °C; and `CCOc1ccc(CC(=O)N(CCOC)c2nc(C)c(S(N)(=O)=O)s2)cc1`, with 165 °C.
`CCOc1ccc(CC(=O)N(C)c2nc(C)c(S(N)(=O)=O)s2)cc1` showed a melting point of 168 °C.
Then `Cc1nc(N(C)C(=O)Cc2ccc(-c3cccc([N+](=O)[O-])c3)cc2)sc1S(N)(=O)=O`, with 202 °C.
Then `Cc1ccncc1-c1ccc(CC(=O)N(C)c2nc(C)c(S(N)(=O)=O)s2)cc1`, with 204 °C.
On to `Cc1nc(N(C)C(=O)Cc2ccc(-c3cncc(C#N)c3)cc2)sc1S(N)(=O)=O`, for which the melting point came to 231 °C.
Then `Cc1nc(N(C)C(=O)Cc2ccc(-c3ccccc3)cc2)sc1S(=O)(=O)NCCNC(=O)OC(C)(C)C`, with 150 °C; and `Cc1nc(N(C)C(=O)Cc2ccc(-c3ccccc3)cc2)sc1S(=O)(=O)NCCN(C)C(=O)OC(C)(C)C`, with 175 °C; and `CNS(=O)(=O)c1sc(N(C)C(=O)Cc2ccc(-c3ccc(OC(F)(F)F)cc3)cc2)nc1C`, with 109 °C.
Then `CNS(=O)(=O)c1sc(N(C)C(=O)Cc2ccc(-c3ncccc3C(F)(F)F)cc2)nc1C`, with 180 °C; and `C=CCN(C(=O)Cc1ccc(-c2ccccc2)cc1)c1nc(C)c(S(N)(=O)=O)s1`, with 117 °C; and `Cc1nc(N(Cc2ccccc2)C(=O)Cc2ccc(-c3ccccc3)cc2)sc1S(N)(=O)=O`, with 154 °C.
Then `Cc1nc(N(CC2CCCO2)C(=O)Cc2ccc(-c3ccccc3)cc2)sc1S(N)(=O)=O` (stereo not shown), with 159 °C.
